Values quoted from earlier work as cited in patent US20110003005A1, “Methods of Treating PDNV and PONV with Extended Release Ondansetron Compositions” (priority 2009, published 2011).

SMILES: Cc1nccn1CC1CCc2c(c3ccccc3n2C)C1=O (centres unmarked) [ondansetron]
- effect of ondansetron administered after the 24 h period following surgery (Pan et al. 2008): efficacy
- effect of oral ondansetron administered in the 24 h period after surgery (Pan et al. 2008): no effect
- nausea and vomiting post-discharge, relative to placebo (orally administered, Gan et al. 2002): did reduce
- improving control of nausea and vomiting in the 24 hour period following surgery (orally administered, Kovac et al. 1999): ineffective
- orally administered ondansetron versus placebo, nausea and vomiting (over a 24 and 72 h period following surgery, Thagaard et al. 2003): no difference
